The experiment has as its target T1, ceramide glucosyltransferase (HL60 glucosyltransferase) (Homo sapiens, UniProt Q16739).
T1 construct: gene UGCG; native enzyme isolated from human promyelocytic HL60 cells
T1 sequence (Q16739 1-394): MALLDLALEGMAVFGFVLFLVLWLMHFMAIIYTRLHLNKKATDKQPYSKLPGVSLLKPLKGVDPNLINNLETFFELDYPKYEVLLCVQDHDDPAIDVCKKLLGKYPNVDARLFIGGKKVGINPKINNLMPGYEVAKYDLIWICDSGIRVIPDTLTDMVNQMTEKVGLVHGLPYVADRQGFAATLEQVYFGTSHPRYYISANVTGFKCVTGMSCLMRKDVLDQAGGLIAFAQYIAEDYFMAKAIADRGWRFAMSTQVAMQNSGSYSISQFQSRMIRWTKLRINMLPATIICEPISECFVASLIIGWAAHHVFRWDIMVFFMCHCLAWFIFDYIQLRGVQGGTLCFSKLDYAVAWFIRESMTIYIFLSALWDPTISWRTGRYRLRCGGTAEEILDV
In words: enzyme inhibition assay, enzyme isolated from HL60 cells. The class given is biochemical. The settings on record: read-out: IC50 ^a / UV-4B. The text has this:
enzyme inhibition assay, enzyme isolated from HL60 cells on ceramide glucosyltransferase (HL60 glucosyltransferase)

Structures can show the parent of a compound that is named as a salt.

As to `COCCCCCCCCCN1C[C@H](O)[C@@H](O)[C@H](O)[C@H]1CO` [UV-4B, N-(9′-methoxynonyl)-1-deoxynojirimycin hydrochloride], the IC50 is 0.39 µM.

The values are drawn from publication PMC5064435, “Inhibition of endoplasmic reticulum glucosidases is required for in vitro and in vivo dengue antiviral activity by the iminosugar UV-4” (Antiviral Research, 2016).
